Series [1] concerns postmenopausal women with SUI and UUI. Kind of series: Proof of concept clinical study: urge incontinence leaks per day. The series is classed as in vivo, human. The source says:
Unexpectedly, Compound IX reduced the median and mean number of urge leaks by ˜60-70% at the week 12 endpoint (Table 12). FIG. 14 provides mean urge leaks/day data over the course of the study in these 11 patients. At baseline the mean was 1.41 urge leaks per day which was reduced to 0.45 urge leaks per day at weak 12, representing a 68% decrease from baseline. Further, the effect on urge incontinence is durable for at least 7 months (N=7) with 0.62 urge leaks per day at 40 weeks (7 months after the last dose of Compound IX). It was unexpected to see any effect of Compound IX on urge incontinence much less such a dramatic and durable effect.
To summarize: while all of the women in the trial had predominant SUI, some also experienced urge urinary incontinence (UUI).

The test system of series [2] is postmenopausal women with SUI. Kind of series: Proof of concept clinical study: safety. The series is classed as in vivo, human. As to conditions: 3 mg/day p.o., 12 weeks. How it is done:
Described is the safety profile of Compound IX 3 mg PO daily in subjects with SUI. See Table 8 which is historical data from other clinical trials establishing the safety profile of Compound IX in human subjects. See also the lack of increase in endometrial thickness in Example 19.
For the PGI-S measure, 12 patients reported symptoms as “moderate” or “severe” at baseline; whereas only 3 patients reported “moderate” symptoms and no patients reported “severe” at 12 weeks (FIG. 12A).

Series [3] has as its system postmenopausal women with SUI. Kind of series: Proof of concept clinical study: quality of life questionnaires (FSFI, UDI-6, IIQ-7, MESA, PGI-I, PGI-S). The series is classed as in vivo, human. The source says: Secondary Objectives: • To describe the effect of 12 weeks of treatment of Compound IX on the number of voids/day as assessed by the 3 days voiding diary. […] See Tables 2 (individual subject data) and Tables 4-6 (mean pad weight data for sites 1, 2, and 3, respectively), and FIG. 17 for mean and median reductions in pad weights from baseline to week 12 (across all sites). • To describe the effect of 12 weeks of treatment of Compound IX on SUI as assessed by the Urethral Pressure Profile (UPP). The UPP assessment was removed from the protocol because it is invasive and not standard of care. […] See summary data for all subjects across the 3 sites reported in Table 7 and FIGS. 13A and 13B. • Described is the effect of 12 weeks of treatment of Compound IX on subject reported impression of stress urinary incontinence severity as assessed by the Patient Global Impression of Severity Scale (PGI-S). See summary data for all subjects across the 3 sites reported in FIG. 12A. • Described is the effect of 12 weeks of treatment of Compound IX on subject reported impression of improvement as assessed by the Patient Global Impression of Improvement Scale (PGI-I). See summary data for all subjects across the 3 sites reported in FIG. 12B. • Described is the effect of 12 weeks of treatment of Compound IX on subject reported urogenital distress as assessed by the Urinary Distress Inventory Questionnaire (UDI-6). See summary data for all subjects across of 3 sites reported in Table 7 and FIG. 12C. • Described is the effect of 12 weeks of treatment of Compound IX on subject reported impact of urinary incontinence on daily life as assessed by the Incontinence Impact Questionnaire (IIQ-7). See summary data for all subjects across the 3 sites reported in Table 7 and FIG. 12D. • Described is the effect of 12 weeks of treatment of Compound IX on subject reported sexual function as indicated on the completion of the Female Sexual Function Index Questionnaire (FSFI). See summary data for all subjects across the 3 sites reported in Table 7 and FIG. 15. • Described is the effect of 12 weeks of treatment of Compound IX on pelvic floor muscles as measured by MRI. See FIG. 11 wherein the pelvic MRI for one representative subject on trial is reported at baseline and at 12 weeks, FIG. 16 wherein the pelvic MRI's for three representative subjects on trial are reported at baseline and at 12 weeks, and Example 19 and Table 13 which provide individual measurements of levator ani thickness, inner and outer diameter of the urethra, and endometrial thickness, and mean changes in the same from baseline to week 12.
The data were collected from 18 patients at 12 weeks. Data collection/analysis for additional secondary endpoints are ongoing. Women reported improved quality of life measurements in each of the five instruments collected in the study, including the Patient Global Impression of Improvement (PGI-I) and Female Sexual Function Index (FSFI). FIG. 15 provides the FSFI overall scores from baseline to 16 weeks.
The QOL measurements are described in greater detail above and are well-known and validated measures.

For another series, the system named is male and female humans. Kind of series: Phase 3 studies G300504 and G300505: lean body mass. As to conditions: 3 mg daily, two phase 3 studies. It counts as in vivo, human. An excerpt:
(§1) Extensive clinical data related to the use of Compound IX are described below; however, there are both preclinical and clinical data supporting the specific investigation of Compound IX for the treatment of SUI. Among the preclinical findings are that Compound IX has androgenic and anabolic activity in male and female rat models. […] These studies together provide an approximation of the expected effect of Compound IX, since currently there are no data in female models regarding levator ani hypertrophy or stress urinary incontinence. […] Based upon these preclinical and clinical analyses, a significant growth/bulking of the levator ani in females with SUI was anticipated, which may also result in improvements in associated symptoms, and are therefore the focus of the study outlined herein.

For another series, the system named is levator ani muscle. Kind of series: Earlier male rat model with castrate levels of serum testosterone. It counts as in vivo.
Text: as §1

The structures appear in SMILES notation. Several values for one entry are separate records, joined by “and”; a condition that tells them apart may be missing. Equal values may be shown once.

For the compound `C[C@](O)(COc1ccc(C#N)cc1)C(=O)Nc1ccc(C#N)c(C(F)(F)F)c1` [Compound IX, (S)—N-(4-Cyano-3-(trifluoromethyl)phenyl)-3-(4-cyanophenoxy)-2-hydroxy-2-methylpropanamide], the “Median urge incontinence leaks per day, Week 12” value in series [1] (11 patients with >0 baseline leaks, baseline 1.3) worked out at 0.3. In addition, in series [1] (11 patients with >0 baseline leaks, baseline 1.41), the “Mean urge incontinence leaks per day, Week 12” value is reported as 0.45 leaks/day. Moreover, the “mean urge leaks per day at 40 weeks” value in series [1] (N=7, 7 months after the last dose) is 0.62 urge leaks per day. Moreover, the “Number of Urge Incontinence Leaks per Day, Week 12” value in series [1] (individual patients, 3 mg/day p.o.) was 0 (10×) and 0.33 and 1 (2×) and 0.3 and 2.7 and 1.67 and 0.67. In series [1] (week 12), the “women with a reduction in UUI episodes per day of at least 50 percent” value is 8 of 11; the “women with a reduction in their number of UUI leaks compared to baseline” value was 9 of 11 and 11 of 11. The “reduction of median and mean number of urge leaks” value in series [1] (week 12 endpoint, 11 patients) was 60-70%. In series [2], the SHBG result is on record as “Reductions in SHBG”, the endometrial stripe thickness result was “No changes in endometrial stripe thickness”, the liver enzymes entry is listed as “Mild transient elevations in liver enzymes” and the serious adverse events entry was “no serious adverse events reported”. Besides, in series [2], the “total cholesterol, LDL, HDL and triglycerides” value was “reductions in total cholesterol, LDL, HDL and triglycerides”. In addition, the “patients reporting moderate symptoms on PGI-S” value in series [3] (12 weeks, 12 patients moderate or severe at baseline, none severe at 12 weeks) came out at 3 patients. Moreover, the “MESA Urge median score at 12 weeks” value in series [3] (18 patients, baseline 56) was determined as 22. Moreover, the “MESA Stress median score at 12 weeks” value in series [3] (18 patients, baseline 79.5) was determined as 44.5. The “UDI-6 median score at 12 weeks” value in series [3] (scale range 0-100, baseline 45.83) was 31.25. Also, the “IIQ-7 median score at 12 weeks” value in series [3] (scale range 0-100, baseline 50.00) is 11.90. In addition, in series [3] (scale range 2-36, baseline 15.90), the “FSFI median score at 12 weeks” value was 28.05 and 28.00 and 28.20. The “patients with improved PGI-I scores” value in series [3] (week 12) was 17 of 18. The “increase in lean body mass” value in the series with male and female humans was “approximately 1.7%”. The “hypertrophy of the levator ani muscle” value in the series with levator ani muscle is reported as “approximately 120 % of an intact male”.

The values are drawn from patent US20180353460A1, “METHODS OF TREATING UROLOGICAL DISORDERS USING SARMs” (priority 2014, published 2018).
